From patent publication US20230295115A1, “SUBSTITUTED ISOQUINOLINYLMETHYL AMIDES, ANALOGUES THEREOF, AND METHODS USING SAME” (priority 2020, published 2023)

Tested on: HBV rcDNA
Test: HepDE19 assay with bDNA quantitation of HBV rcDNA
Type: cell-based, hepatitis B virus (HBV)
Details: HepDE19 cells, 7 day incubation, rcDNA measured by Quantigene 2.0 bDNA assay, top concentration 25 μM; read-out: DE-19bDNA EC50
Outline: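 HepDE19 cells were switched to tetracycline-free medium and exposed to compound (0.5% DMSO final) for 7 days at 37° C. rcDNA was then quantified by bDNA with an HBV-specific probe set. In parallel, viability was read as ATP content (CellTiter-Glo) after 4 days on replicate plates.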

Q: For `COc1ncc(C(C)N(C)C(=O)c2cc3cc(F)c(F)cc3[nH]2)c2cc(F)c(F)cc12` (single isomer, unassigned) [Compound 169, N-(1-(6,7-Difluoro-1-methoxyisoquinolin-4-yl)ethyl)-5,6-difluoro-N-methyl-1H-indole-2-carboxamide], which EC50 is on record?
A: The EC50 was 0.13 µM.

Q: `COc1ncc(C(C)N(C)C(=O)c2cc3cc(F)c(F)cc3[nH]2)c2cc(F)c(F)cc12` (single isomer, unassigned) [Compound 170, N-(1-(6,7-Difluoro-1-methoxyisoquinolin-4-yl)ethyl)-5,6-difluoro-N-methyl-1H-indole-2-carboxamide] was tested. Which EC50 did it give?
A: Its EC50 is 5.04 µM.

Q: For `CC(c1cn(C)c(=O)c2cc(F)c(F)cc12)N(C)C(=O)c1cc2c(F)cccn2c1` (single isomer, unassigned) [Compound 171, N-(1-(6,7-difluoro-2-methyl-1-oxo-1,2-dihydroisoquinolin-4-yl)ethyl)-8-fluoro-N-methylindolizine-2-carboxamide], which EC50 is on record?
A: Its EC50 is 16.4 µM.

Q: For `CC(c1cn(C)c(=O)c2cc(F)c(F)cc12)N(C)C(=O)c1cc2c(F)cccn2c1` (single isomer, unassigned) [Compound 172, N-(1-(6,7-difluoro-2-methyl-1-oxo-1,2-dihydroisoquinolin-4-yl)ethyl)-8-fluoro-N-methylindolizine-2-carboxamide], which EC50 is on record?
A: The EC50 was 0.09 µM.

Q: For `CC(c1cn(C)c(=O)c2cc(F)c(F)cc12)N(C)C(=O)c1cc2cc(F)c(F)cc2[nH]1` (single isomer, unassigned) [Compound 173, N-(1-(6,7-difluoro-2-methyl-1-oxo-1,2-dihydroisoquinolin-4-yl)ethyl)-5,6-difluoro-N-methyl-1H-indole-2-carboxamide], which EC50 is on record?
A: The EC50 was 2.12 µM.

Q: Which EC50 does the source give for `CC(c1cn(C)c(=O)c2cc(F)c(F)cc12)N(C)C(=O)c1cc2cc(F)c(F)cc2[nH]1` (single isomer, unassigned) [Compound 174, N-(1-(6,7-difluoro-2-methyl-1-oxo-1,2-dihydroisoquinolin-4-yl)ethyl)-5,6-difluoro-N-methyl-1H-indole-2-carboxamide] here?
A: The EC50 was 0.05 µM.

Q: For `COc1ncc(C(C)N(C)C(=O)c2ccc(C(F)(F)F)c(F)c2)c2cc(F)c(F)cc12` (single isomer, unassigned) [Compound 175, N-(1-(6,7-Difluoro-1-methoxyisoquinolin-4-yl)ethyl)-3-fluoro-N-methyl-4-(trifluoromethyl)benzamide], which EC50 is on record?
A: The EC50 was 24.3 µM.

Q: With `COc1ncc(C(C)N(C)C(=O)c2ccc(C(F)(F)F)c(F)c2)c2cc(F)c(F)cc12` (single isomer, unassigned) [Compound 176, N-(1-(6,7-Difluoro-1-methoxyisoquinolin-4-yl)ethyl)-3-fluoro-N-methyl-4-(trifluoromethyl)benzamide] as the compound, how does the EC50 read?
A: Its EC50 is 0.56 µM.

Q: For `COc1ncc(C(C)N(C)C(=O)c2ccc(Br)c(F)c2)c2cc(F)c(F)cc12` (single isomer, unassigned) [Compound 177, 4-Bromo-N-(1-(6,7-difluoro-1-methoxyisoquinolin-4-yl)ethyl)-3-fluoro-N-methylbenzamide], which EC50 is on record?
A: The EC50 was 20.2 µM.

Q: For `COc1ncc(C(C)N(C)C(=O)c2ccc(Br)c(F)c2)c2cc(F)c(F)cc12` (single isomer, unassigned) [Compound 178, 4-Bromo-N-(1-(6,7-difluoro-1-methoxyisoquinolin-4-yl)ethyl)-3-fluoro-N-methylbenzamide], which EC50 is on record?
A: The EC50 was 0.2 µM.

Q: With `COc1ncc(C(C)N(C)C(=O)c2cc3c(F)cccn3c2)c2cc(F)c(F)cc12` (single isomer, unassigned) [Compound 179, N-(1-(6,7-difluoro-1-methoxyisoquinolin-4-yl)ethyl)-8-fluoro-N-methylindolizine-2-carboxamide] as the compound, how does the EC50 read?
A: The EC50 was 9.38 µM.

Q: Which EC50 does the source give for `COc1ncc(C(C)N(C)C(=O)c2cc3c(F)cccn3c2)c2cc(F)c(F)cc12` (single isomer, unassigned) [Compound 180, N-(1-(6,7-difluoro-1-methoxyisoquinolin-4-yl)ethyl)-8-fluoro-N-methylindolizine-2-carboxamide] here?
A: The EC50 was 0.24 µM.

Q: How did the EC50 turn out when `COc1ncc(C(C)N(C)C(=O)[C@@H]2Cc3ccccc3N2)c2cc(F)c(F)cc12` (single isomer, unassigned) [Compound 181] was run?
A: The EC50 was 0.29 µM.

Q: Which EC50 does the source give for `COc1ncc(C(C)N(C)C(=O)[C@@H]2Cc3ccccc3N2)c2cc(F)c(F)cc12` (single isomer, unassigned) [Compound 182] here?
A: The EC50 was 24.7 µM.

Q: Which EC50 does the source give for `CC(c1c[nH]c(=O)c2cc(F)c(F)cc12)N(C)C(=O)C1Cc2cc(F)ccc2N1` (centres unmarked) [Compound 61, N-(1-(6,7-Difluoro-1-oxo-1,2-dihydroisoquinolin-4-yl)ethyl)-5-fluoro-N-methylindoline-2-carboxamide] here?
A: Its EC50 is 6.7 µM.

Q: With `CC(c1c[nH]c(=O)c2cc(F)c(F)cc12)N(C)C(=O)C1Cc2cc(F)ccc2N1` (centres unmarked) [Compound 62, N-(1-(6,7-Difluoro-1-oxo-1,2-dihydroisoquinolin-4-yl)ethyl)-5-fluoro-N-methylindoline-2-carboxamide] as the compound, how does the EC50 read?
A: Its EC50 is 0.19 µM.

Q: `CC(c1c[nH]c(=O)c2cc(F)c(F)cc12)N(C)C(=O)C1Cc2cc(F)ccc2N1` (centres unmarked) [Compound 63, N-(1-(6,7-Difluoro-1-oxo-1,2-dihydroisoquinolin-4-yl)ethyl)-5-fluoro-N-methylindoline-2-carboxamide] was tested. Which EC50 did it give?
A: The EC50 was 5.2 µM.

Q: With `CC(c1c[nH]c(=O)c2cc(F)c(F)cc12)N(C)C(=O)C1Cc2cc(F)ccc2N1` (centres unmarked) [Compound 64, N-(1-(6,7-Difluoro-1-oxo-1,2-dihydroisoquinolin-4-yl)ethyl)-5-fluoro-N-methylindoline-2-carboxamide] as the compound, how does the EC50 read?
A: Its EC50 is 0.02 µM.

Q: For `CC(c1c[nH]c(=O)c2c(F)c(F)ccc12)N(C)C(=O)C1Cc2c(F)cc(F)cc2N1` (centres unmarked) [Compound 65, N-(1-(7,8-Difluoro-1-oxo-1,2-dihydroisoquinolin-4-yl)ethyl)-4,6-difluoro-N-methylindoline-2-carboxamide], which EC50 is on record?
A: Its EC50 is 11 µM.

Q: With `CC(c1c[nH]c(=O)c2c(F)c(F)ccc12)N(C)C(=O)C1Cc2c(F)cc(F)cc2N1` (centres unmarked) [Compound 66, N-(1-(7,8-Difluoro-1-oxo-1,2-dihydroisoquinolin-4-yl)ethyl)-4,6-difluoro-N-methylindoline-2-carboxamide] as the compound, how does the EC50 read?
A: Its EC50 is 0.21 µM.

Q: With `CC(c1c[nH]c(=O)c2c(F)c(F)ccc12)N(C)C(=O)C1Cc2c(F)cc(F)cc2N1` (centres unmarked) [Compound 67, N-(1-(7,8-Difluoro-1-oxo-1,2-dihydroisoquinolin-4-yl)ethyl)-4,6-difluoro-N-methylindoline-2-carboxamide] as the compound, how does the EC50 read?
A: The EC50 was 3.1 µM.

Q: How did the EC50 turn out when `CC(c1c[nH]c(=O)c2c(F)c(F)ccc12)N(C)C(=O)C1Cc2c(F)cc(F)cc2N1` (centres unmarked) [Compound 68, N-(1-(7,8-Difluoro-1-oxo-1,2-dihydroisoquinolin-4-yl)ethyl)-4,6-difluoro-N-methylindoline-2-carboxamide] was run?
A: Its EC50 is 0.2 µM.

Q: `CC(c1c[nH]c(=O)c2c(F)c(F)ccc12)N(C)C(=O)C1Cc2cc(F)ccc2N1` (centres unmarked) [Compound 73, N-(1-(7,8-Difluoro-1-oxo-1,2-dihydroisoquinolin-4-yl)ethyl)-5-fluoro-N-methylindoline-2-carboxamide] was tested. Which EC50 did it give?
A: The EC50 was 10 µM.

Q: Which EC50 does the source give for `CC(c1c[nH]c(=O)c2c(F)c(F)ccc12)N(C)C(=O)C1Cc2cc(F)ccc2N1` (centres unmarked) [Compound 74, N-(1-(7,8-Difluoro-1-oxo-1,2-dihydroisoquinolin-4-yl)ethyl)-5-fluoro-N-methylindoline-2-carboxamide] here?
A: Its EC50 is 0.26 µM.

Q: For `CC(c1c[nH]c(=O)c2c(F)c(F)ccc12)N(C)C(=O)C1Cc2cc(F)ccc2N1` (centres unmarked) [Compound 75, N-(1-(7,8-Difluoro-1-oxo-1,2-dihydroisoquinolin-4-yl)ethyl)-5-fluoro-N-methylindoline-2-carboxamide], which EC50 is on record?
A: Its EC50 is 0.83 µM.

Q: For `CC(c1c[nH]c(=O)c2c(F)c(F)ccc12)N(C)C(=O)C1Cc2cc(F)ccc2N1` (centres unmarked) [Compound 76, N-(1-(7,8-Difluoro-1-oxo-1,2-dihydroisoquinolin-4-yl)ethyl)-5-fluoro-N-methylindoline-2-carboxamide], which EC50 is on record?
A: The EC50 was 4.4 µM.

Q: With `CC(c1c[nH]c(=O)c2cc(F)c(F)cc12)N(C)C(=O)C1Cc2c(F)cc(F)cc2N1` (centres unmarked) [Compound 98, N-(1-(6,7-Difluoro-1-oxo-1,2-dihydroisoquinolin-4-yl)ethyl)-4,6-difluoro-N-methylindoline-2-carboxamide] as the compound, how does the EC50 read?
A: Its EC50 is 5.9 µM.

Q: `CC(c1c[nH]c(=O)c2cc(F)c(F)cc12)N(C)C(=O)C1Cc2c(F)cc(F)cc2N1` (centres unmarked) [Compound 99, N-(1-(6,7-Difluoro-1-oxo-1,2-dihydroisoquinolin-4-yl)ethyl)-4,6-difluoro-N-methylindoline-2-carboxamide] was tested. Which EC50 did it give?
A: The EC50 was 0.07 µM.

Q: How did the EC50 turn out when `CC(c1c[nH]c(=O)c2cc(F)c(F)cc12)N(C)C(=O)C1Cc2c(F)cc(F)cc2N1` (centres unmarked) [Compound 100, N-(1-(6,7-Difluoro-1-oxo-1,2-dihydroisoquinolin-4-yl)ethyl)-4,6-difluoro-N-methylindoline-2-carboxamide] was run?
A: The EC50 was 0.8 µM.

Q: With `CC(c1c[nH]c(=O)c2cc(F)c(F)cc12)N(C)C(=O)C1Cc2c(F)cc(F)cc2N1` (centres unmarked) [Compound 101, N-(1-(6,7-Difluoro-1-oxo-1,2-dihydroisoquinolin-4-yl)ethyl)-4,6-difluoro-N-methylindoline-2-carboxamide] as the compound, how does the EC50 read?
A: The EC50 was 0.03 µM.

Same assay, conditions: Hepatitis B virus, HepDE19, 168 h, read-out: DE-19bDNA EC50 (μM), HepDE19 cells, 7 day incubation, rcDNA measured by Quantigene 2.0 bDNA assay, top concentration 25 μM

Q: How did the EC50 turn out when `C[C@H](c1c[nH]c(=O)c2cc(F)c(F)cc12)N(C)C(=O)c1cc2c([nH]1)CCCC2` [Compound 34, (R)-N-(1-(6,7-Difluoro-1-oxo-1,2-dihydroisoquinolin-4-yl)ethyl)-N-methyl-4,5,6,7-tetrahydro-1H-indole-2-carboxamide] was run?
A: The EC50 was 0.05 µM.

Q: With `C[C@H](c1c[nH]c(=O)c2c(F)c(F)ccc12)N(C)C(=O)c1cccc(=O)[nH]1` [Compound 87, (R)-N-(1-(7,8-Difluoro-1-oxo-1,2-dihydroisoquinolin-4-yl)ethyl)-N-methyl-6-oxo-1,6-dihydropyridine-2-carboxamide] as the compound, how does the EC50 read?
A: Its EC50 is 18 µM.
